Tests used:
[1] = tested on: purple nutsedge; assay: Test B pre/postemergence purple nutsedge; type: in vivo, Cyperus rotundus
Method in brief: (§1)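 Response is a visual 0-to-10 score relative to untreated plants, where 0 means no effect and 10 means complete control, taken twelve to sixteen days after application. Treatments went onto soil at planting and onto foliage of 1- to 4-leaf plants, using a surfactant-containing non-phytotoxic solvent.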

[2] = tested on: morningglory; assay: Test B pre/postemergence morningglory; type: in vivo, Ipomoea hederacea
Method in brief: as §1

[3] = tested on: cocklebur; assay: Test B pre/postemergence cocklebur; type: in vivo, Xanthium strumarium
Method in brief: as §1

[4] = tested on: wild oat; assay: Test B pre/postemergence wild oat; type: in vivo, Avena fatua
Method in brief: as §1

[5] = tested on: duck salad; assay: Test B flood test duck salad; type: in vivo, Heteranthera limosa
Method in brief: (§2)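 Plants were grown to the 2-leaf stage before treatment with test chemical, then held in a greenhouse for twelve to sixteen days. Injury was visually rated against untreated controls on a 0–10 scale, where 0 is no effect and 10 is complete control.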

[6] = tested on: rice; assay: Test B flood test rice; type: in vivo, Oryza sativa
Method in brief: as §2

[7] = tested on: giant foxtail; assay: Test B pre/postemergence giant foxtail; type: in vivo, Setaria faberii
Method in brief: as §1

[8] = tested on: corn; assay: Test B pre/postemergence corn; type: in vivo, Zea mays
Method in brief: as §1

[9] = tested on: soybean; assay: Test B pre/postemergence soybean; type: in vivo, Glycine max
Method in brief: as §1

[10] = tested on: sugar beet; assay: Test B pre/postemergence sugar beet; type: in vivo, Beta vulgaris
Method in brief: as §1

[11] = tested on: crabgrass; assay: Test B pre/postemergence crabgrass; type: in vivo, Digitaria sanguinalis
Method in brief: as §1

[12] = tested on: rape; assay: Test B pre/postemergence rape; type: in vivo, Brassica napus
Method in brief: as §1

[13] = tested on: velvetleaf; assay: Test B pre/postemergence velvetleaf; type: in vivo, Abutilon theophrasti
Method in brief: as §1

[14] = tested on: wheat; assay: Test B pre/postemergence wheat; type: in vivo, Triticum aestivum
Method in brief: as §1

[15] = tested on: pigweed; assay: Test B pre/postemergence pigweed; type: in vivo, Amaranthus retroflexus
Method in brief: as §1

[16] = tested on: bamyardgrass; assay: Test B flood test barnyardgrass; type: in vivo, Echinochloa crus-galli
Method in brief: as §2

[17] = Postemergence, Rate 62 g/ha, scale 0 to 10, 0 is no effect, 10 is complete control
[18] = Postemergence, Rate 125 g/ha, scale of 0 to 10 where 0 is no effect and 10 is complete control
[19] = Postemergence, Rate 250 g/ha, scale of 0 to 10, 0 is no effect, 10 is complete control
[20] = Postemergence, Rate 500 g/ha, scale of 0 to 10 where 0 is no effect and 10 is complete control
[21] = Preemergence, Rate 62 g/ha, scale 0 to 10 (0 no effect, 10 complete control)
[22] = Preemergence, Rate 125 g/ha, scale of 0 to 10 where 0 is no effect and 10 is complete control
[23] = Preemergence, Rate 250 g/ha, scale 0 to 10 (0 no effect, 10 complete control)
[24] = Preemergence, Rate 500 g/ha, scale of 0 to 10 where 0 is no effect and 10 is complete control
[25] = Rate 62 g/ha, flood test species, Pre-emergence, visual evaluation after twelve to sixteen days
[26] = Rate 125 g/ha, under heading Pre-emergence, flood test species, visual evaluation after twelve to sixteen days
[27] = Rate 250 g/ha, Pre-emergence (flood test species), scale 0 to 10, 0 is no effect, 10 is complete control
[28] = Rate 500 g/ha, Pre-emergence section of Table B, 0 to 10 scale (0 no effect, 10 complete control)

CC(C)N(C(=O)n1oc(=O)n(CC2CCCCO2)c1=O)c1ccc(F)cc1 (stereo not drawn) [Compound 624]
Plant response rating, Nutsedge [1, 17]: 0
Plant response rating, Nutsedge [1, 18]: 0
Nutsedge plant response rating [1, 19]: 0
Plant response rating, Nutsedge [1, 20]: 3
Nutsedge plant response rating [1, 21]: 0
Nutsedge plant response rating [1, 22]: 0
Plant response rating, Nutsedge [1, 23]: 0
Plant response rating, Nutsedge [1, 24]: 0
Plant response rating, Morningglory [2, 17]: 1
Plant response rating, Morningglory [2, 18]: 1
Morningglory plant response rating [2, 19]: 1
Plant response rating, Morningglory [2, 20]: 2
Morningglory plant response rating [2, 21]: 0
Morningglory plant response rating [2, 22]: 0
Plant response rating, Morningglory [2, 23]: 0
Plant response rating, Morningglory [2, 24]: 0
Plant response rating, Cocklebur [3, 17]: 0
Plant response rating, Cocklebur [3, 18]: 0
Cocklebur plant response rating [3, 19]: 2
Plant response rating, Cocklebur [3, 20]: 6
Cocklebur plant response rating [3, 21]: 0
Cocklebur plant response rating [3, 22]: 0
Plant response rating, Cocklebur [3, 23]: 0
Plant response rating, Cocklebur [3, 24]: 0
Plant response rating, Wild oats [4, 17]: 0
Plant response rating, Wild oats [4, 18]: 0
Wild oats plant response rating [4, 19]: 0
Wild oats plant response rating [4, 21]: 2
Wild oats plant response rating [4, 22]: 6
Plant response rating, Wild oats [4, 23]: 6
Plant response rating, Wild oats [4, 24]: 6
Plant response rating, Ducksalad (0 to 10 scale, 0 is no effect, 10 is complete control) [5, 25]: 0
Ducksalad plant response rating (0 to 10 scale, 0 is no effect, 10 is complete control) [5, 26]: 0
Ducksalad plant response rating [5, 27]: 0
Ducksalad plant response rating [5, 28]: 0
Plant response rating, Rice (0 to 10 scale, 0 is no effect, 10 is complete control) [6, 25]: 0
Rice plant response rating (0 to 10 scale, 0 is no effect, 10 is complete control) [6, 26]: 0
Rice plant response rating [6, 27]: 0
Rice plant response rating [6, 28]: 0
Plant response rating, Giant foxtail [7, 17]: 4
Plant response rating, Giant foxtail [7, 18]: 8
Giant foxtail plant response rating [7, 19]: 8
Plant response rating, Giant foxtail [7, 20]: 9
Giant foxtail plant response rating [7, 21]: 10
Giant foxtail plant response rating [7, 22]: 10
Plant response rating, Giant foxtail [7, 23]: 10
Plant response rating, Giant foxtail [7, 24]: 10
Plant response rating, Corn [8, 17]: 0
Plant response rating, Corn [8, 18]: 0
Corn plant response rating [8, 19]: 2
Plant response rating, Corn [8, 20]: 5
Corn plant response rating [8, 21]: 0
Corn plant response rating [8, 22]: 0
Plant response rating, Corn [8, 23]: 2
Plant response rating, Corn [8, 24]: 6
Plant response rating, Soybean [9, 17]: 2
Plant response rating, Soybean [9, 18]: 3
Soybean plant response rating [9, 19]: 7
Soybean plant response rating [9, 21]: 0
Soybean plant response rating [9, 22]: 0
Plant response rating, Soybean [9, 23]: 3
Plant response rating, Soybean [9, 24]: 7
Plant response rating, Sugarbeets [10, 17]: 0
Plant response rating, Sugarbeets [10, 18]: 0
Sugarbeets plant response rating [10, 19]: 0
Sugarbeets plant response rating [10, 21]: 0
Sugarbeets plant response rating [10, 22]: 1
Plant response rating, Sugarbeets [10, 23]: 7
Plant response rating, Sugarbeets [10, 24]: 8
Plant response rating, Crabgrass [11, 17]: 6
Plant response rating, Crabgrass [11, 18]: 7
Crabgrass plant response rating [11, 19]: 7
Crabgrass plant response rating [11, 21]: 7
Plant response rating, Crabgrass [11, 23]: 9
Plant response rating, Crabgrass [11, 24]: 9
Plant response rating, Rape [12, 17]: 0
Plant response rating, Rape [12, 18]: 0
Rape plant response rating [12, 19]: 0
Plant response rating, Rape [12, 20]: 3
Rape plant response rating [12, 21]: 0
Rape plant response rating [12, 22]: 0
Plant response rating, Rape [12, 23]: 1
Plant response rating, Rape [12, 24]: 7
Plant response rating, Velvetleaf [13, 17]: 0
Plant response rating, Velvetleaf [13, 18]: 0
Velvetleaf plant response rating [13, 19]: 0
Velvetleaf plant response rating [13, 21]: 0
Velvetleaf plant response rating [13, 22]: 0
Plant response rating, Velvetleaf [13, 23]: 1
Plant response rating, Velvetleaf [13, 24]: 8
Plant response rating, Wheat [14, 17]: 0
Plant response rating, Wheat [14, 18]: 0
Wheat plant response rating [14, 19]: 0
Wheat plant response rating [14, 21]: 0
Wheat plant response rating [14, 22]: 0
Plant response rating, Wheat [14, 23]: 6
Plant response rating, Wheat [14, 24]: 7
Plant response rating, Redroot pigweed [15, 17]: 0
Plant response rating, Redroot pigweed [15, 18]: 0
Redroot pigweed plant response rating [15, 19]: 2
Redroot pigweed plant response rating [15, 21]: 0
Redroot pigweed plant response rating [15, 22]: 0
Plant response rating, Redroot pigweed [15, 23]: 3
Plant response rating, Redroot pigweed [15, 24]: 10
Plant response rating, Barnyardgrass (0 to 10 scale, 0 is no effect, 10 is complete control) [16, 25]: 0
Barnyardgrass plant response rating (0 to 10 scale, 0 is no effect, 10 is complete control) [16, 26]: 0
Barnyardgrass plant response rating [16, 27]: 0
Barnyardgrass plant response rating [16, 28]: 0

— US6737383B1, “Herbicidal oxadiazolidines” (priority 1999, dated 2004)
